Assay [1] concerns Staphylococcus aureus. In words: Antibacterial activity against Staphylococcus aureus FDA 209P was determined. The assay is classed as functional. To be noted: Staphylococcus aureus; read-out: MIC.
The nature of assay [2]: Ratio of binding to human DNA topoisomerase II and Staphylococcus aureus DNA topoisomerase IV.
The subject of a further assay is Enterococcus faecalis. In words: Antibacterial activity against Enterococcus faecalis ATCC 19433 was determined. The assay is classed as functional. Conditions: Enterococcus faecalis, ATCC 19433; read-out: MIC.
For the next assay, the system named is Streptococcus pneumoniae. In words: Antibacterial activity against Penicillin-resistant Streptococcus pneumoniae (PRSP) J-24 was determined. The assay is classed as functional. To be noted: Streptococcus pneumoniae; read-out: MIC.
The test system of the next assay is Streptococcus pyogenes. In words: Antibacterial activity against Streptococcus pyogenes G-36 was determined. The assay is classed as functional. Conditions: Streptococcus pyogenes; read-out: MIC.
Assay [3] concerns Staphylococcus aureus. In words: Antibacterial activity against methicillin-resistant Staphylococcus aureus (MRSA) 870307 was determined. The assay is classed as functional. To be noted: Staphylococcus aureus; read-out: MIC.
Assay [4] addresses T1, DNA topoisomerase 4 subunit A (Staphylococcus aureus subsp. aureus Mu50, UniProt Q931S2).
T1 sequence (Q931S2 whole entry): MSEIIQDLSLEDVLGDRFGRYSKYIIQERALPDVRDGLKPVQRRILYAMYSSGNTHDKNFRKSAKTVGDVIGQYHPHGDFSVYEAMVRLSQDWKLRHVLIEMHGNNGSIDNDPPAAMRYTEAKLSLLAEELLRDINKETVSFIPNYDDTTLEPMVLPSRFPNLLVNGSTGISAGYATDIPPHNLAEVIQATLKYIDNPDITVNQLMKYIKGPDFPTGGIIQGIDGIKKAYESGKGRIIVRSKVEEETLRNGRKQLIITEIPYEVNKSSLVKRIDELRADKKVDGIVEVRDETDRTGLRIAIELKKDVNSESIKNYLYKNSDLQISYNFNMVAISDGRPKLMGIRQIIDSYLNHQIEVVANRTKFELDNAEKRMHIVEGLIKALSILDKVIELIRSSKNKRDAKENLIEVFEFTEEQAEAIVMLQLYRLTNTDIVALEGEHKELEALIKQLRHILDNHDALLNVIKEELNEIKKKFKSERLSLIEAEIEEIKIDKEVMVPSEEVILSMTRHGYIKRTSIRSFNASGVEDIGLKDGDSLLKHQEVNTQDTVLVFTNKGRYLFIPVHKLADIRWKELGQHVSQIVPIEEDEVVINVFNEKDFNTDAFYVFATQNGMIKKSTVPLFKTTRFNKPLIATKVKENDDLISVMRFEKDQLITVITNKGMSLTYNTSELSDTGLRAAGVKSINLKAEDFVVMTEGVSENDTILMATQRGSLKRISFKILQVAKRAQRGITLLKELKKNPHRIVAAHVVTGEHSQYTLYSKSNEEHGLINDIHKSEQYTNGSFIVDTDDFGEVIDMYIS
In words: Inhibitory concentration against Staphylococcus aureus DNA topoisomerase IV.

The test system of a further assay is Escherichia coli. In words: Antibacterial activity against Escherichia coli NIHJ was determined. The assay is classed as functional. To be noted: Escherichia coli; read-out: MIC.
Another assay addresses DNA topoisomerase II (Homo sapiens, UniProt P11388+Q02880). In words: Inhibitory concentration against human DNA topoisomerase II. The assay is classed as protein assay.
Assay [5] concerns Staphylococcus epidermidis. In words: Antibacterial activity against Staphylococcus epidermidis 56500 was determined. The assay is classed as functional. Conditions: Staphylococcus epidermidis; read-out: MIC.
For a further assay, the system named is Klebsiella pneumoniae. In words: Antibacterial activity against Klebsiella pneumoniae type II was determined. Conditions: Klebsiella pneumoniae; read-out: MIC. The assay is classed as functional.
In the next assay the test system is Streptococcus mitis. In words: Antibacterial activity against Streptococcus mitis IID685 was determined. The assay is classed as functional. To be noted: Streptococcus mitis; read-out: MIC.

Structures are written as SMILES. In brackets after ≈: the same amount, converted by molar mass.

By MIC is commonly meant the lowest concentration that inhibits growth of the organism. As usually defined, the IC50 is the point on the concentration scale where inhibition reaches its midpoint. Lower therefore signals inhibition by little substance. With `Cc1c(N2C[C@H]3CC[C@H]4C[C@@]4(N)[C@H]3C2)c(F)c(N)c2c(=O)c(C(=O)O)cn([C@@H]3C[C@@H]3F)c12`, the MIC in the assay on Staphylococcus aureus [1] is not above 3 ng/mL; with Enterococcus faecalis, 20 ng/mL (≈ 0.045 µM); in the assay with Streptococcus pneumoniae it was 6 ng/mL (≈ 0.0135 µM); in the assay with Streptococcus pyogenes, not above 3 ng/mL; with Staphylococcus aureus [3], 10 ng/mL (≈ 0.0225 µM); in the assay on Escherichia coli, not above 3 ng/mL. The values for the MIC (in [5]; with Klebsiella pneumoniae; in the assay with Streptococcus mitis) were not above 3 ng/mL, 10 ng/mL (≈ 0.0225 µM) and not above 3 ng/mL, respectively. Moreover, the Selectivity in [2] came out at 93.2. The IC50 in [4] was 0.81 µM; against DNA topoisomerase II it was 34210 ng/mL (≈ 77 µM).

Turning to `Cc1c(N2C[C@H]3CCC[C@@H](N)[C@H]3C2)c(F)c(N)c2c(=O)c(C(=O)O)cn([C@@H]3C[C@@H]3F)c12`, the minimum inhibitory concentration (MIC) with Staphylococcus aureus [1] was 6 ng/mL (≈ 0.0139 µM); in the assay on Enterococcus faecalis, 20 ng/mL (≈ 0.0462 µM); in the assay on Streptococcus pneumoniae, not above 3 ng/mL; in the assay with Streptococcus pyogenes, not above 3 ng/mL; in the assay on Staphylococcus aureus [3], 10 ng/mL (≈ 0.0231 µM); in the assay with Escherichia coli, 6 ng/mL (≈ 0.0139 µM). Moreover, the minimal inhibitory concentration (MIC) in [5] is not above 3 ng/mL; with Klebsiella pneumoniae, 20 ng/mL (≈ 0.0462 µM); in the assay on Streptococcus mitis, not above 3 ng/mL. Further, the Selectivity in assay [2] is 14.7. Further, the values for the IC50 (in assay [4]; against DNA topoisomerase II) were 0.717 µM and 4660 ng/mL (≈ 10.8 µM), respectively.

For the origin of these results see ChEMBL document CHEMBL1137908, “Synthesis and antibacterial activity of novel 6-fluoro-1-[(1R,2S)-2-fluorocyclopropan-1-yl]-4-oxoquinoline-3-carboxylic acids bearing cyclopropane-fused 2-amino-8-azabicyclo[4.3.0]nonan-8-yl substituents at the C-7 position” (Bioorg Med Chem Lett, 2004).
